US5603949A, “Use of a tocopherol phosphate or one of its derivatives, for the preparation of cosmetic or pharmaceutical compositions and compositions so obtained” (LVMH Recherche, priority 1991, dated 1997)
Counter-ions that a name gives are not always drawn.

Biological target: T1, phospholipase A2 (Rattus norvegicus, UniProt P14423)
T1 construct: The phospholipase A2 is isolated from the peritoneal cavity of a rat; from tissue; host or cells: peritoneal cavity of a rat
T1 sequence (P14423 22-146): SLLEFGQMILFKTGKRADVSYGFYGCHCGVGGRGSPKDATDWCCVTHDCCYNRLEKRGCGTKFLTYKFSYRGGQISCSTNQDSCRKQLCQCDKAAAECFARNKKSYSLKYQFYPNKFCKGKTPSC
Assay: inhibition of phospholipase A2 (PLA2): release of 14C-labeled fatty acid from phosphatidylethanolamine
Assay type: biochemical
Details: PLA2 isolated from peritoneal cavity of a rat; 0.1M Tris-HCl, pH=9, Ca++; 20 min preincubation, then 20 min with substrate, 37° C.; read-out: 50% inhibitory concentration (IC50) (converted)
Procedure: The inhibition of phospholipase A2, which is involved in the production of allergy and inflammation mediators, especially in the inflammatory reaction of skin allergies, is measured according to the protocol described by H. W. Chang, I. Kudo, M. Tomita and K. Inoue in J. Biochem. (Tokyo) 102(1): 147-154 (1987).
The phospholipase A2 is isolated from the peritoneal cavity of a rat. PLA2 hydrolyzes the ester linkage in the 2-position of the glycerol of a phosphatidylethanolamine, this position being occupied by a fatty acid residue labeled with carbon 14. The radioactive fatty acid released will be extracted and then quantitatively analyzed by liquid scintillation. In the presence of the PLA2 inhibitor, this hydrolysis will be reduced and less released fatty acid will therefore be determined.
In practice, the PLA2 and the test product are placed in a 0.1M Tris-HCl buffer, pH=9, containing 4 mmol of Ca^++ and the mixture is incubated for 20 min at 37° C., with agitation. After this contact time, the labeled phosphatidylethanolamine is added and incubation is continued for 20 min at 37° C., with agitation, to allow the hydrolysis of this substrate. n-Heptane is then used to extract the labeled fatty acid released during the hydrolysis, the latter then being quantitatively analyzed by liquid scintillation. […]

Cc1cc(OP(=O)(O)O)cc2c1OC(C)(CCCC(C)CCCC(C)CCCC(C)C)CC2 (stereo not shown) [disodium salt of delta-tocopherol phosphate]
IC50: 20.7 µM
